In patent US9795602B2, “Polycyclic-carbamoylpyridone compounds and their pharmaceutical use” (Gilead Sciences, Inc., priority 2014, dated 2017):
Where two headings read alike, the source gives them in different places.

Tests used:
HIV-IIIb = assay: Antiviral assay in MT4 cells; assay type: cell-based; conditions: read-out: EC50
Summary of the method: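 MT4 cells infected with HIV-IIIb (0.004 m.o.i.) or mock-infected, then plated at 2000 cells per well with compound. After 5 days at 37 °C, cell viability read by CellTiter-Glo chemiluminescence.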

MT4 cells = assay: Cytotoxicity (CC50) in MT4 cells, mock-infected; assay type: cell-based; conditions: 5 days
Summary of the method: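 Uninfected MT4 cells, 2000 per well, incubated with compound 5 days at 37 °C. Viability by CellTiter-Glo luminescence after 2–3 min lysis at room temperature.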

OCT2 = OCT2 (Homo sapiens (Human), UniProt O15244); assay: OCT2 inhibition assay (14C-TEA uptake, OCT2-transfected MDCKII cells); assay type: cell-based
Protocol: MDCKII cells were maintained in minimal essential medium (MEM) with 1% Pen/Strep, 10% fetal bovine serum, and 0.25 mg/mL hygromycin B in an incubator set at 37° C., 90% humidity and 5% CO2. 24 hours prior to assay, media containing 5 mM sodium butyrate were added to MDCKII cells in flasks, and cells were grown to 80-90% confluence. On assay day, cells were trypsinized and resuspended in Krebs-Henseleit Buffer (KHB), pH 7.4 at […]. Cells were preincubated for 15 min in assay plate before addition of test compound or substrate.
Test compounds were serially diluted in DMSO and then spiked (2 μL) into in 0.4 mL KHB buffer containing wild-type or OCT2-transfected cells and incubated for 10 minutes. Assay was initiated with the addition of 0.1 mL of 100 μM ^14C-TEA in KHB buffer (20 μM final concentration after mixing). The concentration of TEA is based on the Km. After 10 minutes of incubation, the assay mixture was quenched with addition of 0.5 mL of ice-cold 1×PBS buffer. Samples were then centrifuged at 1000 rpm for 5 min and supernatants were removed. Wash steps were repeated four times with ice-cold PBS. Finally, the cell pellets were lysed with 0.2N NaOH and let sit at room temperature for at least 30 min to ensure complete lysis. Samples were then counted on liquid scintillation counter and dpm counts were used to perform the following calculations. The % inhibition was calculated as follows: % inhibition=[1−{[OCT2]i−[WT]ni}/{[OCT2]ni−[WT]ni}]*100 where, [OCT2]i represents the dpm count in the presence of test compound for either OCT2 cells, […] of test compound for OCT2 cells and [WT]ni represents the dpm count in the absence of test compound for wild type cells, respectively.

human PXR = human PXR (Homo sapiens (Human), UniProt O75469); assay: Human PXR activation assay (luciferase reporter, DPX2 cells); assay type: cell-based; conditions: 15 uM; DPX2 cells; % Emax relative to rifampicin, adjusted for DMSO background
Protocol: (§1) Luciferase Reporter Gene Assay.
(§2) A stably transformed tumor cell line (DPX2) was plated on 96-well microtiter plates. […]. The number of viable cells was determined and the reporter gene activity was assessed. […]

[1] = Pharmacokinetics after intravenous infusion to male SD rats; assay type: in vivo; conditions: Sprague-Dawley, plasma, rat, IV infusion 0.5 mg/kg
Protocol: (§3) Pharmacokinetic analysis was performed on compounds 25b and 39 following intravenous or oral administration to rats.
(§4) The test compounds were formulated in 5% Ethanol, 55% PEG 300, and 40% water at 0.1 mg/mL for IV infusion and for oral dosing.
(§5) Each dosing group consisted of 3 male, Sprague-Dawley rats. At dosing, the animals weighed an average of 0.25 kg. The animals were fasted overnight prior to dose administration and up to 4 hr after dosing.
(§6) For the IV infusion group, the test article was administered by intravenous infusion over 30 min. The rate of infusion was adjusted according to the body weight of each animal to deliver a dose of 0.5 mg/kg. For the oral dosing group, the test article was administered by oral gavage at 5 mL/kg for a dose of 0.5 mg/kg.
For pharmacokinetic analysis of intravenously administered compounds, serial venous blood samples (approximately 0.3 mL each) were taken from each animal at 0, 0.250, 0.483, 0.583, 0.750, 1.50, 3.00, 6.00, 8.00, 12.0, 24.0, 48 and 72 hours after dosing. The blood samples were collected into Vacutainer™ tubes containing EDTA-K2 as the anti-coagulant and were immediately placed on wet ice pending centrifugation for plasma. An LC/MS/MS method was used to measure the concentration of the test compound in plasma. An aliquot of 50 μL of each plasma sample was added to a clean 96 well plate, and 200 μL of cold acetonitrile/internal standard solution (ACN)/(ISTD) was added. After protein precipitation, an aliquot of 110 μL of the supernatant was transferred to a clean 96-well plate and diluted with 300 μL of water. An aliquot of 10 μL of the above solution was injected into a ABSciex API-4000 triple quadrupole LC/MS/MS system utilizing a HyPurity C18 HPLC column (30×2.1 mm, 3μ), from Thermo-Hypersil (Part #22103-032130). An Agilent 1200 series binary pump (P/N G1312A Bin Pump) was used for elution and separation, and an HTS Pal autosampler (LEAP Technologies, Carrboro, N.C.) was used for sample injection. A API-4000 triple quadrupole mass spectrometer was utilized in multiple reaction monitoring mode (Applied Biosystems, Foster City, Calif.). Liquid chromatography was performed using two mobile phases: mobile phase A contained 0.1% formic acid and 1% isopropylamine in aqueous solution, and mobile phase B contained […]. Non-compartmental pharmacokinetic analysis was performed on the plasma concentration-time data. The resulting data are shown in the first three columns of Table 2. In Table 2, Cl refers to clearance, which characterizes the rate at which drug is removed from plasma. The lower the clearance of a drug is, the longer the elimination half-life is in the body. Vss refers to the steady state volume of distribution and indicates how well a drug is distributed into the tissues. The larger the Vss is, the longer the elimination half-life is in the body. MRT refers to mean residence time, which is a measure of the average time molecules exist in the body.

[2] = Pharmacokinetics after oral administration to male SD rats; assay type: in vivo; conditions: Sprague-Dawley, plasma, rat, oral gavage 0.5 mg/kg, solution, read-out: % F (solution)
Protocol: as §3, §4, §5, §6
For pharmacokinetic analysis of orally administered compounds, serial venous blood samples (approximately 0.3 mL each) were taken from each animal at time points of 0, 0.25, 0.50, 1.0, 2.0, 4.0, 6.0, 8.0, 12.0 24.0, 48.0 and 72 hours after dosing. Blood samples were collected, prepared and analyzed in a similar way to the intravenous studies described above. Non-compartmental pharmacokinetic analysis was performed on the plasma concentration-time data. In Table 2, F (%) refers to oral bioavailability.

HIV-1 E138K/Q148K = assay type: cell-based; conditions: MT2 cells; mean EC50 mutant / mean EC50 wt
Protocol: (§7) For the antiviral assay utilizing MT-2 cells, 50 μL of 2× test concentration of 3-fold serially diluted compound in culture medium with 10% FBS was added to each well of a 96-well plate (9 concentrations) in triplicate. MT-2 cells were infected with wild-type or mutant variants of HIV-1 for 3 hours using a volume of viral inoculum determined to produce 90% cell killing. Fifty microliters of infected cell suspension in culture medium with 10% FBS (˜1.5×10^4 cells) was then added to each well containing 50 μL of serially diluted compound. The plates with HIV-infected cultures were then incubated at 37° C. for 5 days in the presence of the tested compounds. After 5 days of incubation, 100 μL of CellTiter-Glo™ Reagent (catalog # G7571, Promega Biosciences, Inc., Madison, Wis.) was added to each well. Cell lysis was carried out by incubating at room temperature for 10 min followed by a chemiluminescence read-out.
(§8) The chemiluminescence readout from the 10-point antiviral dose response was analyzed directly by curve fitting with equation (I) to determine the EC50.
(§9) where y=Cell Survival, M=maximum cell survival enabled by drug protection, H=baseline cell survival without drug protection, n=Hill coefficient of the antiviral dose response, m=Hill coefficient of the cytotoxicity dose response, and [I]=inhibitor concentration.
(§10) EC50 values (mean±standard deviation) were calculated from at least three independent experiments performed in triplicate. The fold-change in antiviral activity of tested compounds was calculated as a ratio of the mean EC50 for each mutant virus divided by the mean EC50 of the control WT virus.

HIV-1 E92Q/N155H = assay type: cell-based; conditions: MT2 cells; mean EC50 mutant / mean EC50 wt
Protocol: as §7, §8, §9, §10

HIV-1 G140S/Q148R = assay type: cell-based; conditions: MT2 cells; mean EC50 mutant / mean EC50 wt
Protocol: as §7, §8, §9, §10

HIV-1 N155H/Q148R = assay type: cell-based; conditions: MT2 cells; mean EC50 mutant / mean EC50 wt
Protocol: as §7, §8, §9, §10

wild-type HIV-1 = assay: Antiviral assay in MT-2 cells, wild-type HIV-1; assay type: cell-based; conditions: Human immunodeficiency virus 1, 120 h; MT2 cells, wild-type HIV-1, 5 days; read-out: wt
Protocol: as §7, §8, §9, §10

[3] = Plasma protein binding (equilibrium dialysis); assay type: in vitro ADME; conditions: human, plasma (sodium EDTA) dialysed against buffer; 2 μM in plasma vs. buffer, 24 hours at 37° C.; read-out: % Free HP/Buffer
Protocol: Plasma protein binding was determined using a HTD96b equilibrium dialyzer with a plate base, stainless steel pressure plate and Teflon bock. 9 Teflon bars, labeled sequentially from A through I, were assembled with two stainless steel connecting rods. Membranes were placed between two Teflon bars, with the membrane placed approximately 2 mm below the top edge of the bar and the lower membrane edge overlapped the bottom of all wells. The membrane was soaked for about 20 minutes in water, about 20 minutes in ethanol (30/70 v/v) and rinsed with water three times to remove the ethanol. It was soaked in PBS for at least 30 minutes. Plasma in sodium EDTA (Bioreclamation or equivalent) was used. The Plasma (not pH-adjusted) was stored at −80° C. and thawed at room temperature before use. The stock solution of the compounds tested was at 200 μM in DMSO. The quench solution used was 50 nM of an internal standard in 100% ACN. To prepare a 2 μM solution of the compound tested in plasma, 5 μL of a 200 μM stock solution was added to 495 μL of blank plasma. 100 μL plasma was added with 2 μM of test compound into one side of the well. 100 μL of buffer (for plasma vs. buffer) was added into another side of the well. The 96-well plate was covered using an adhesive sealing film and incubated for 24 hours at 37° C. under slow rotation. This procedure was replicated for each compound. 50 μL of plasma sample was put into a 96 well plate, 50 μL of buffer was added. 50 μL of buffer was put into a 96 well plate. 50 μL of plasma was added. 300 μL of quench solution was added and the plate sealed and shaken for 15 minutes. The material was centrifuged for 30 minutes at 3000 RPM and ˜250 μL was transferred into a short plate. The samples were analyzed by LC/MS. The resulting data is shown in the last row of Table 3 as “% Free” which corresponds to the percentage of compound not protein bound.

PXR (NR1I2) = PXR (NR1I2) (Homo sapiens (Human), UniProt O75469); assay: Human PXR activation assay (luciferase reporter, DPX2 cells); assay type: cell-based; conditions: human; 15 uM; DPX2 cells; % Emax relative to rifampicin, adjusted for DMSO background; read-out: PXR % inh at 15 uM (adjusted)
Protocol: as §1, §2

Chain of PXR (NR1I2) (O75469 whole entry): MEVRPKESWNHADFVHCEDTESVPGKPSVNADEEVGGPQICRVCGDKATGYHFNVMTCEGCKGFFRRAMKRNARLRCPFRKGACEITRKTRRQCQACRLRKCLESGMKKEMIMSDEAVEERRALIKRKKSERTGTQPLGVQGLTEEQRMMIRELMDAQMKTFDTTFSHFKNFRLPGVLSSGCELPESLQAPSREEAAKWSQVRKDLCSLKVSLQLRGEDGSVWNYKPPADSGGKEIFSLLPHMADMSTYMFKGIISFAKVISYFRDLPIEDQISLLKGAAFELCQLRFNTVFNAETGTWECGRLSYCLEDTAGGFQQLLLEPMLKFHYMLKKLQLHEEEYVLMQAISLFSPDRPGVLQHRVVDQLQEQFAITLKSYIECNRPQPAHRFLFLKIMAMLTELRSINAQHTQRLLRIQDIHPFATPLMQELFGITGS
Chain of human PXR (O75469 whole entry): as above
Chain of OCT2 (O15244 whole entry): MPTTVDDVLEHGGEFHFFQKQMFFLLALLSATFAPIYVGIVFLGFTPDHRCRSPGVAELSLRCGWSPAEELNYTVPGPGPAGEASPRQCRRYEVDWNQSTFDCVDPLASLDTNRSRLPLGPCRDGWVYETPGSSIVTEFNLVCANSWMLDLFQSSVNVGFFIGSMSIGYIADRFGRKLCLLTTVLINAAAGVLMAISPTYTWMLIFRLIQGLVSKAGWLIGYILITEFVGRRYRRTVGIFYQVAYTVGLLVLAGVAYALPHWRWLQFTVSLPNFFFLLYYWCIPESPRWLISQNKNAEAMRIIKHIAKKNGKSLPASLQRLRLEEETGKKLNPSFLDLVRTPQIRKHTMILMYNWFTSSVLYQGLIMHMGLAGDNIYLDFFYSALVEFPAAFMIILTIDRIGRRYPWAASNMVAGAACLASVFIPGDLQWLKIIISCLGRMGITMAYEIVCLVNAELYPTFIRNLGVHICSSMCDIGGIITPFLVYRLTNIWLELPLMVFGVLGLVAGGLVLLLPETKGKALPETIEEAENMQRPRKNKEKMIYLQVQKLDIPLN

SMILES | EC50 (HIV-IIIb) [µM] | CC50 (MT4 cells) [µM] | IC50 (OCT2) [µM] | PXR % inh at 15 uM (adjusted) (human PXR) [%] | MRT [1] [h] | clearance [1] [mL/min/kg] | Vd ([1]; read-out: Vss) [L/kg] | bioavailability [2] [%] | Resistance fold shift E138K/Q148K vs. wild type (HIV-1 E138K/Q148K) [fold shift] | Resistance fold shift E92Q/N155H vs. wild type (HIV-1 E92Q/N155H) [fold shift] | Resistance fold shift G140S/Q148R vs. wild type (HIV-1 G140S/Q148R) [fold shift] | Resistance fold shift N155H/Q148R vs. wild type (HIV-1 N155H/Q148R) [fold shift] | EC50 (wild-type HIV-1) [µM] | fraction unbound at 24 h, 2 µM [3] | EC50 (HIV-IIIb; MT4 cells, HIV-IIIb, 5 days) [µM] | inhibition at 24 h, 15 µM (PXR (NR1I2)) [%]
O=C(NCc1c(F)cc(F)cc1F)c1cn2c(c(O)c1=O)C(=O)N(CC(F)(F)F)[C@@H]1COCC[C@@H]12 [Compound 32] | 0.0038 | 57.1 | 10 | 19 | – | – | – | – | – | – | – | – | – | – | – | –
C[C@@H]1CCO[C@H]2Cn3cc(C(=O)NCc4ccc(F)cc4F)c(=O)c(O)c3C(=O)N12 [Dolutegravir, reference compound] | – | – | – | – | 12.4 | 0.167 | 0.17 | 84 | 8.2 | 1.9 | 3.7 | 2.5 | 0.0017 | 0.01 | – | –
CN1C(=O)c2c(O)c(=O)c(C(=O)NCc3c(F)cc(F)cc3F)cn2[C@@H]2CCCC[C@@H]21 [Compound 4] | – | 10.5 | – | – | – | – | – | – | – | – | – | – | – | – | 0.00253 | 65
